In patent US7271198B2, “Method of treating autoimmune diseases” (Wake Forest University, priority 2000, dated 2007):

Assays:
IL-12 p40 protein = IL-12 p40 protein secretion by MRL/lpr splenocytes; format: cell-based, mouse; conditions: splenocytes stimulated with LPS and IFN-γ 24 hr; stimulated control 45.3±9.1; p=0.003
Method: When splenocytes were activated with LPS (100 μg/ml) and IFN-γ 100U/ml) for 24 hr the mean (±SEM) IL-12 p40 secretion was 45.3±9.1 pg/ml.

TGF-β1 mRNA = test: PCR of TGF-β1 mRNA in SLE and control T cells / PBMCs; format: cell-based, human
Method: Gene expression of TGF-β1 was tested to determine if the gene expression is suppressed by deacetylation of histones in SLE. In this determination, SLE PBMCs or isolated T cells were treated with the histone deacetylase inhibitors (HDIs), TSA or SAHA, for 18hr. […] Subsequently, semi-quantitative PCR was performed to determine the amounts of […] transcripts in SLE and control T cells treated with vehicle or TSA (1000 ng/ml). […] There is no change in GAPDH transcript in normal and SLE T cells after treatment of HDIs. Increased TGF-β1 transcript was associated with a subsequent increase in TGF-β1 protein secretion by SLE PBMCs. When compared to vehicle treated PBMCs, total TGF-β1 protein in culture supernatants from SLE PBMCs increased by approximately 30%. In contrast, there was no increase in total TGF-β1 secretion in TSA treated cells in normal healthy controls. Similar results may be obtained by SAHA.

[1] = test system: acetylated H3 and H4 histones; test: Immunoblot of acetylated H3 and H4 histones in MRL/lpr splenocytes; format: cell-based, mouse; conditions: 18 hr exposure
Description: One mechanism by which HDIs suppress transcription of cytokine genes in MRL/lpr splenocytes may be by increasing accumulation of acetylated histones which may result in chromatin remodeling. The accumulation of acetylated histones H3 and H4 in HDI-treated splenocytes was quantified to test this hypothesis. FIG. 12 is an immunoblot analysis of the acetylation levels of H3 and H4 histones.

IL-10 protein = IL-10 protein production by SLE T cells (ELISA); format: cell-based, human
Method: (§1) To determine whether TSA could down-regulate IL-10, a dose-response analysis was performed. […] However, when SLE T cells were cultured in the presence of TSA for 18 hr, no detectable IL-10 transcripts were identified (FIG. 2C, lanes 3, 6, 9). When IL-10 transcripts from all eight SLE subjects were quantified relative to GAPDH transcripts, TSA inhibited expression of IL-10 mRNA by 71% (FIG. 2D; P=0.029). […] IL-10 and IFN-γ protein production were quantified by ELISA (R & D Systems, Minneapolis, Minn.). […] Thus, like CD154, TSA was able to block expression of IL-10 transcript, abolishing IL-10 production by SLE T cells.

IL-6 mRNA = IL-6 mRNA in MRL/lpr splenocytes; format: cell-based, mouse
Method: In determining whether TSA or SAHA down-regulate IL-6 mRNA content, splenocytes from 24-wk MRL/lpr mice were treated with increasing concentrations of TSA for 18 hr. […] TSA decreased IL-6 transcript at a concentration of 100 ng/ml and exerted maximal inhibition at 300 ng/ml. To address whether TSA and SAHA down-regulate LPS- and IFN-γ induced IL-6 transcript levels, splenocytes from younger MRL/lpr mice were treated in the absence or presence of TSA or SAHA for 18 hr before LPS and IFN-γ stimulation for 6 or 18 hr. […] Next, the effect of TSA and SAHA on IL-6 protein secretion in stimulated splenocytes was measured (FIG. 10D). When splenocytes were cultured with LPS and IFN-γ for 72 hr, there was a mean (±SEM) 34.4±7.6 pg/ml of IL-6 protein secretion.

IL-10 mRNA = test: RT-PCR of IL-10 transcript in SLE T cells; format: cell-based, human
Method: T cells were cultured in the absence or presence of increasing concentrations of TSA for 18 hr in 5% CO2 at 37° C. RNA was isolated, cDNAs were prepared, and RT-PCR was performed as previously detailed (D. Laxminarayana, et al., J. Clin. Invest. 92, 2207 (1993)). The primers used were: […]
The reaction mixtures were subjected to 30 cycles of denaturation (94° C., 1 min) and annealing for 1 min at 53° C. (CD154), […] (GAPDH) and 55° C. (IL-10 and IFN-γ). Extension was for 2 min at 72° C. with a final extension of 7 min at 72° C. using a DNA thermal cycler (Perkin-Elmer).
as §1

IFN-γ protein = IFN-γ protein production by SLE T cells (ELISA); format: cell-based, human; conditions: SLE T cells activated with PMA+IO 24 hr in presence of TSA; P=0.011
Method: as §1
When T cells were activated with PMA+IO for 24 hr, IFN-γ production increased about 24-fold. However, activation of T cells in the presence of TSA further enhanced IFN-γ output by >12-fold (P=0.011) (FIG. 3C).

[2] = test system: acetylated H3 and H4 histones; test: Western immunoblot of acetylated H3 and H4 histones in SLE PBMCs; format: cell-based, human; conditions: 1000 ng/ml TSA or 20 μM SAHA, 18 hr
Method: The effect of TSA and SAHA was examined to determine if HDIs induce accumulation of acetylated histones in SLE PBMCs on the level of histone acetylation in SLE PBMCs. Following culture of PBMCs in the presence of vehicle, 1000 ng/ml TSA or 20 μM SAHA for 18 hr, histones were isolated.

[3] = splenocytes from 24-wk MRL/lpr mice, 18 hr

## CC(/C=C/C(=O)NO)=C\[C@@H](C)C(=O)c1ccc(N(C)C)cc1 [TSA, Trichostatin A]
IL-12 p40 protein
  IL-12 p40 secretion (mean±SEM): 1.5 ± 1.4 pg/mL
TGF-β1 mRNA; SLE PBMCs exposed to TSA and SAHA (summary statement)
  increase in TGF-β1 transcript: eight-fold
TGF-β1 mRNA; SLE T cells, 1000 ng/ml TSA, 18 hr, real time PCR
  induction of TGF-β1 mRNA compared to vehicle treated cells: 8 fold
TGF-β1 mRNA; SLE T cells, TSA 1000 ng/ml
  TGF-β1 mRNA levels, semi-quantitative PCR: increased
TGF-β1 mRNA; SLE T cells, TSA concentrations to 500 ng/ml
  TGF-β1 mRNA change: modest increase
[1]
  accumulation of acetylated H3 and H4 histones: marked increase
IL-10 protein; SLE T cells, at 24 hr
  inhibition of IL-10 synthesis: complete inhibition
IL-10 protein; SLE T cells, within 6 hr
  inhibition of IL-10 production: 90%
IL-10 protein; T cells from eight SLE subjects, 18 hr
  TSA concentration of maximal inhibition of IL-10 protein production: 300 ng/mL
IL-6 mRNA; [3]
  TSA concentration of maximal inhibition of IL-6 transcript: 300 ng/mL
  TSA concentration that decreased IL-6 transcript: 100 ng/mL
IL-6 mRNA; splenocytes from younger MRL/lpr mice pretreated 18 hr, stimulated 6 or 18 hr
  LPS- and IFN-γ induced IL-6 mRNA: no detectable IL-6 mRNA
IL-10 mRNA; SLE T cells, dose-response, RT-PCR
  TSA concentration at which no detectable IL-10 mRNA was identified: 700 to 800 ng/mL
IL-10 mRNA; eight SLE subjects, TSA 1000 ng/ml 18 hr, relative to GAPDH, P=0.029
  inhibition of expression of IL-10 mRNA: 71%
IFN-γ protein
  further enhancement of IFN-γ output: > 12 fold
[2]
  accumulation of acetylated H3 and H4 histones: induced the accumulation
